Reference: patent US8415349B2, “Dicycloazaalkane derivatives, preparation processes and medical uses thereof” (Jiangsu Hansoh Pharmaceuticals Co., Ltd., priority 2008, dated 2013)
Structures can show the parent of a compound that is named as a salt.

Assays:
[1] = test system: normal ICR mice; assay: Oral glucose tolerance test in normal ICR mice (hypoglycemic effect); assay type: in vivo; settings: 2.5 g/kg glucose, 30 min after glucose
Protocol: Species, strains: ICR mice […] The volume is 20 mL/kg. […] The volume is 20 mL/kg. 1. The effects of compounds on blood glucose levels in normal ICR mice Normal male ICR mice were randomly grouped according to weights, 6 mice in each group. The groups included a black control group as well as different doses of the treatment groups as follows: Test 1: Blank control: double-distilled water by gavage. Group 1: the compound of Example 1, 1 mg/kg by gavage; […] Test 2: Blank control: double-distilled water by gavage. Group 1: the compound of Example 1, 1 mg/kg by gavage; […] 2. Serum Glucose Determination: […] The blank tube was used to set the instrument to zero, the colorimetric assay was performed at OD 505 nm. Serum glucose concentration (BG, mmol/l)=ODsample tube/ODstandard tube×5.55 Data Processing and Statistical Analysis: 1. Mean±SD and Student-t test were used in statistical analysis. 2.

[2] = test system: KKAy mice; assay: Oral glucose tolerance test in type II diabetes KKAy mice; assay type: in vivo; settings: 30 min after glucose
Protocol: Species, Strains: KKAy mice Preparation Method: […] The volume is 10 mL/kg. The Effects of the Compounds on Blood Glucose in KKay Mice Normal KKAy mice had been fasted for 6 hours, and then were randomly grouped according to the weights and fasting blood glucose, 5 mice in each group. The groups included a blank control group as well as different doses of the treatment groups as follows: Test 1: male 0704 Blank control: double-distilled water by gavage […] Test 2: female 0816 Blank control: double-distilled water by gavage […] Test 3: male 0712 Black control: double-distilled water by gavage […] Test 4: female 0907 Black control: double-distilled water by gavage […] 3. Mean±SD and Student-t test, or Anova was used in statistical analysis. 4.

[3] = Observation of water solubility when preparing dosing liquid; assay type: physicochemical; settings: double distilled water; visible particles at 0.5 mg/mL, dissolved at low concentration
Protocol: Preparation Method: Compounds were weighed accurately, and then dissolved in double distilled water. The suspensions of 0.5, 0.15 and 0.05 mg/mL were prepared, respectively.

[4] = biological target: T1, DPP-IV (Homo sapiens, UniProt P27487); assay: Assay for DPP-IV inhibitory activity (DPP-IV-Glo luminescence); assay type: biochemical; settings: purified DPP-IV enzyme
T1 construct: purchased Calbiochem 317630
From the text: 2. […] 3. […] 4. […] 5. […] 7. […] 9. […] 10. […] 11. […] 12.

[5] = biological target: T2, DPP-VIII (Homo sapiens, UniProt Q6V1X1); assay: Assay for DPP-VIII inhibitory activity (luminescence); assay type: biochemical; settings: purified DPP-VIII enzyme
T2 construct: purchased Bioscience 80080

[6] = biological target: T3, DPP-IX (Homo sapiens, UniProt Q86TI2); assay: Assay for DPP-IX inhibitory activity (luminescence); assay type: biochemical; settings: purified DPP-IX enzyme
T3 construct: purchased Bioscience 80090

[7] = Test 1, male ICR mice, high dose 10 mg/kg by gavage
[8] = Test 1, male ICR mice, low dose 1 mg/kg by gavage
[9] = Test 1, male ICR mice, middle dose 3 mg/kg by gavage
[10] = Test 2, male ICR mice, high dose 10 mg/kg by gavage
[11] = Test 2, male ICR mice, low dose 1 mg/kg by gavage
[12] = Test 2, male ICR mice, middle dose 3 mg/kg by gavage
[13] = female KKAy mice, 10 mg/kg by gavage, 2.5 g/kg glucose
[14] = male KKAy mice, 10 mg/kg by gavage, 1.5 g/kg glucose
[15] = male KKAy mice, 30 mg/kg by gavage, 1.5 g/kg glucose

T1 sequence (P27487 whole entry): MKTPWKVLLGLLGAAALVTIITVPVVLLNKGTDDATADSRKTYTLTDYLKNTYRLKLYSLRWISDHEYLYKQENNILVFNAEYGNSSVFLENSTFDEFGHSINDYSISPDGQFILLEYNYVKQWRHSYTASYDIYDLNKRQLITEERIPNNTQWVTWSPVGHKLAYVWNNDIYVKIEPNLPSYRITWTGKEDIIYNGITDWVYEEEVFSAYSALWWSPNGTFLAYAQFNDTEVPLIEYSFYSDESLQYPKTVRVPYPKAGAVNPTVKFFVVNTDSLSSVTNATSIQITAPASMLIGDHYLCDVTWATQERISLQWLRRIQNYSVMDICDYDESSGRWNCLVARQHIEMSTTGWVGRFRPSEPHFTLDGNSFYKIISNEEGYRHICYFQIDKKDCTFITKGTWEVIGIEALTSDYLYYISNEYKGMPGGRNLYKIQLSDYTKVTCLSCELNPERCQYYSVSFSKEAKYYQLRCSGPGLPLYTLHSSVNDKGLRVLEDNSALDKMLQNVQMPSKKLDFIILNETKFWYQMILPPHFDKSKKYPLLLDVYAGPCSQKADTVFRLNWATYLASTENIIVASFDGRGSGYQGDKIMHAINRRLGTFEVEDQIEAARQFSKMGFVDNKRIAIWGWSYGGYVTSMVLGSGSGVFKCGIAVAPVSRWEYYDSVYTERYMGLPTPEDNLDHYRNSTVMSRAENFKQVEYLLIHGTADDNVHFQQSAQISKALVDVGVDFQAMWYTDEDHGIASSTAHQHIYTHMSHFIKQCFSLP
T2 sequence (Q6V1X1 whole entry): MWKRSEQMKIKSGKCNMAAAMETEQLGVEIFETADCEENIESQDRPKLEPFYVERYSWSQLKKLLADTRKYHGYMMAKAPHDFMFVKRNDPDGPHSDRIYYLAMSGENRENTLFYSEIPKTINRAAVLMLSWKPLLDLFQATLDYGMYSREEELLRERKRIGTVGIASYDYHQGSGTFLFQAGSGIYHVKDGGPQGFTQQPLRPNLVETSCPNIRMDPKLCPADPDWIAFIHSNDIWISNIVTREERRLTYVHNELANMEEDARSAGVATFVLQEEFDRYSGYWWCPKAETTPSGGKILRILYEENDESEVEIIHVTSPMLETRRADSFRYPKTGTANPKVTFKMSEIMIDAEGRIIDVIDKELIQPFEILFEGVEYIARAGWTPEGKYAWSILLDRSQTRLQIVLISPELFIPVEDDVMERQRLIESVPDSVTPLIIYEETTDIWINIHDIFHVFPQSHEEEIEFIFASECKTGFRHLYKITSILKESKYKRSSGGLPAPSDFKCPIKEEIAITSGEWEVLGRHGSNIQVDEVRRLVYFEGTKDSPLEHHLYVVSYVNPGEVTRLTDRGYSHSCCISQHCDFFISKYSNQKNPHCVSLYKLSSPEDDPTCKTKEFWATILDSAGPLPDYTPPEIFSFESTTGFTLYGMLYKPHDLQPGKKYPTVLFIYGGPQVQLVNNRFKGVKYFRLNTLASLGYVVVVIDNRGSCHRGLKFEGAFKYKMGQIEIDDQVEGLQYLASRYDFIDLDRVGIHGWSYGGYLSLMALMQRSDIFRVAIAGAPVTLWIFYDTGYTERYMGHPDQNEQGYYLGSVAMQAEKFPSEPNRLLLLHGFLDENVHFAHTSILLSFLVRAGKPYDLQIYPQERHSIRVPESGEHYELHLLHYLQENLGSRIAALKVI
T3 sequence (Q86TI2 whole entry): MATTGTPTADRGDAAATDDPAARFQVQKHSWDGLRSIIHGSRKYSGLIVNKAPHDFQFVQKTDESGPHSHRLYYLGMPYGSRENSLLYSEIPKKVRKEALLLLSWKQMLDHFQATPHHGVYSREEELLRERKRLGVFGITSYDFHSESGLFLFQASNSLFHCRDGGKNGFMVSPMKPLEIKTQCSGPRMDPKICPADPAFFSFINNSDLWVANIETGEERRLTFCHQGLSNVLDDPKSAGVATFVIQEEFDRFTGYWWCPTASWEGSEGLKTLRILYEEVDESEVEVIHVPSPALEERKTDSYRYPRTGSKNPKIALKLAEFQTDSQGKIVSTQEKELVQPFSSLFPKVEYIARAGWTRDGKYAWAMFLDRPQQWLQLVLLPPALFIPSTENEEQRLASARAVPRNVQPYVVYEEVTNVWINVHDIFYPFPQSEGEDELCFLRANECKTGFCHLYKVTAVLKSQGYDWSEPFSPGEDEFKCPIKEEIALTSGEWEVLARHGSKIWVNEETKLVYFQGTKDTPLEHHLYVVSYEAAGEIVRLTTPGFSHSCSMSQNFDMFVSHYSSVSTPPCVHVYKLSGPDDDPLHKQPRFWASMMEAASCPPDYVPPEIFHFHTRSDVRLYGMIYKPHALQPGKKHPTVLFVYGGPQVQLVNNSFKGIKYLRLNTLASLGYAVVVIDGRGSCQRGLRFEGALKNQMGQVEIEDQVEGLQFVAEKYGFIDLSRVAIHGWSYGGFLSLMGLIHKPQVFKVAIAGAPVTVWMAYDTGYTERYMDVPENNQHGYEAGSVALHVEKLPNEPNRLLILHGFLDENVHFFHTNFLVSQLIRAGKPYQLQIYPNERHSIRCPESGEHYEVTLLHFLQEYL

| Compound | percentage of blood glucose decreased vs control group at 30 minutes [1, 7] [%] | percentage of blood glucose decreased vs control group at 30 minutes [1, 8] [%] | percentage of blood glucose decreased vs control group at 30 minutes [1, 9] [%] | percentage of blood glucose decreased vs control group at 30 minutes [1, 10] [%] | percentage of blood glucose decreased vs control group at 30 minutes [1, 11] [%] | percentage of blood glucose decreased vs control group at 30 minutes [1, 12] [%] | percentage of blood glucose decreased vs control group at 30 minutes ([2]; female KKAy mice, 3 mg/kg by gavage, 2.5 g/kg glucose) [%] | percentage of blood glucose decreased vs control group at 30 minutes [2, 13] [%] | percentage of blood glucose decreased vs control group at 30 minutes [2, 14] [%] | percentage of blood glucose decreased vs control group at 30 minutes [2, 15] [%] | water solubility (observation) [3] | IC50 [4] [nM] | IC50 [5] [nM] | IC50 [6] [nM] |
| --- | --- | --- | --- | --- | --- | --- | --- | --- | --- | --- | --- | --- | --- | --- |
| CN(C)C(=O)N1C[C@H]2C[C@@H](NCC(=O)N3CCC[C@H]3C#N)C[C@H]2C1 [Example 1, cis-5-[2-((S)-2-Cyano-pyrrolidin-1-yl)-2-oxo-ethylamino]-N,N-dimethyl-hexahydro-cyclopenta[c]pyrrole-2-carboxamide hydrochloride] | 31.85 | 19.16 | 22.85 | 32.05 | 26.10 | 30.24 | 40.63 | 24.68 | 16.22 | 17.15 | poorly water-soluble |  |  |  |
| CN(C)C(=O)N1C[C@@H]2C[C@](C)(NCC(=O)N3C[C@@H](F)C[C@H]3C#N)C[C@@H]2C1 [Example 13, 5-[2-((2S,4S)-2-Cyano-4-fluoro-pyrrolidin-1-yl)-2-oxo-ethylamino]-N,N,5-tirmethyl-hexahydro-cyclopenta[c]pyrrole-2-carboxamide tartrate] |  |  |  |  |  |  |  |  |  |  |  | 10 | 371 | 516 |
| CN(C)C(=O)N1C[C@@H]2C[C@@](C)(NCC(=O)N3C[C@@H](F)C[C@H]3C#N)C[C@@H]2C1 [Example 18, 5-[2-((2S,4S)-2-Cyano-4-fluoro-pyrrolidin-1-yl)-2-oxo-ethylamino]-5-methyl-hexahydro-cyclopenta[c]pyrrole-2-carboxylic acid dimethylamide p-toluenesulfonate] |  |  |  |  |  |  |  |  |  |  |  | 39 | 3320 | 380 |
| COC(=O)N1C[C@H]2C[C@@H](NCC(=O)N3CCC[C@H]3C#N)C[C@H]2C1 [Example 2, hydrochloride] | 26.93 | 25.54 | 25.92 | 27.75 | 24.51 | 26.96 |  | 21.55 | 13.79 | 12.23 |  |  |  |  |
